Values after ≈ are worked out from the molar mass of the structure shown. Where only a bound is given, the exact number is not on record here.

The nature of test [1]: Inhibition of Campylobacter concisus phosphoglycosyl transferase Pg1C.
A short description of test [2]: Inhibition of MraY in Staphylococcus aureus by fluorescence assay.
Test [3] can be described thus: Inhibition of Clostridium difficile phosphoglycosyl transferase. Further details: species or system Clostridioides difficile.
Another test relates to Staphylococcus aureus. In words: Inhibition of MraY in Staphylococcus aureus at 1 mM by fluorescence assay relative to control.
Test [4] in a line: Inhibition of Campylobacter jejuni phosphoglycosyl transferase Pg1D.
In test [5] the test system is Mycobacterium tuberculosis. In words: Antimycobacterial activity against Mycobacterium tuberculosis H37Rv ATCC 27294 after 14 days by resazurin reduction microplate assay. Type of test: functional. The following applies: H37Rv ATCC 27294, 336 h.

`COc1ccc2cc(-c3cn(CC(=O)N[C@@H](CCC(=O)O)C(=O)NC[C@H]4O[C@@H](n5ccc(=O)[nH]c5=O)[C@H](O)[C@@H]4O)nn3)ccc2c1` returned a 50% inhibitory concentration (IC50) in test [1] of 116 µM.
The compound `CC(C)C[C@H](NC(=O)[C@H](CCCCN)NC(=O)N[C@H](C(=O)O)C(C)C)C(=O)NCCCN[C@@H](C[C@H]1O[C@@H](N2CCC(=O)NC2=O)[C@H](O)[C@@H]1O)C(=O)O` showed a concentration for half-maximal inhibition (IC50) in test [2] of 27 µM.
Compound `O=c1ccn([C@@H]2O[C@H](CNc3c(NCc4cccc(F)c4)c(=O)c3=O)[C@@H](O)[C@H]2O)c(=O)[nH]1` registered a concentration for half-maximal inhibition (IC50) in test [3] of 174 µM.
The compound `CC(C)C[C@H](NC(=O)[C@H](CCCCN)NC(=O)N[C@H](C(=O)O)C(C)C)C(=O)NCCCN[C@@H](C[C@H]1O[C@@H](n2cc(F)c(=O)[nH]c2=O)[C@H](O)[C@@H]1O)C(=O)O` returned an IC50 in test [2] greater than 100 µM. Further, the inhibition in the test on Staphylococcus aureus is 40%.
As to `O=C(Cn1cc(-c2cccc(F)c2)nn1)NC[C@H]1O[C@@H](n2ccc(=O)[nH]c2=O)[C@H](O)[C@@H]1O`, 35 µM corresponded to half-maximal inhibition in test [4] (IC50).
`CC(C)C[C@H](NC(=O)[C@H](CCCCN)NC(=O)N[C@@H](C)C(=O)O)C(=O)NCCCN[C@@H](C[C@H]1O[C@@H](n2ccc(=O)[nH]c2=O)[C@H](O)[C@@H]1O)C(=O)O`: the concentration for half-maximal inhibition (IC50) in test [2] came out at 21 µM.
In test [1], `O=C(O)CC[C@H](NC(=O)Cn1cc(-c2cccc(F)c2)nn1)C(=O)NC[C@H]1O[C@@H](n2ccc(=O)[nH]c2=O)[C@H](O)[C@@H]1O` registered an IC50 of 72 µM.
In turn, `CC(C)[C@H](NC(=O)N[C@@H](CCCCN)C(=O)N[C@@H](C)C(=O)NCCCN[C@@H](C[C@H]1O[C@@H](n2ccc(=O)[nH]c2=O)[C@H](O)[C@@H]1O)C(=O)O)C(=O)O` had an IC50 in test [2] of 95 µM.
Same read-out and setting: the value for `CC(C)C[C@H](NC(=O)[C@H](C)NC(=O)N[C@H](C(=O)O)C(C)C)C(=O)NCCCN[C@@H](C[C@H]1O[C@@H](n2ccc(=O)[nH]c2=O)[C@H](O)[C@@H]1O)C(=O)O` was 14 µM.
On to `CC(C)C[C@H](NC(=O)N[C@@H](Cc1c[nH]c2ccccc12)C(=O)O)C(=O)N[C@H](C(=O)NC[C@H]1C[C@@H](O)[C@H](n2ccc(=O)[nH]c2=O)O1)[C@H](C)N(C)C(=O)[C@H](C)N`, for which the MIC50 in test [5] was 0.6 µM (≈ 0.453 µg/mL).
For `CC(C)C[C@H](NC(=O)N[C@@H](Cc1c[nH]c2ccccc12)C(=O)O)C(=O)N[C@H](C(=O)NC[C@H]1C[C@@H](O)[C@H](n2ccc(=O)[nH]c2=O)O1)[C@H](C)N(C)C(=O)[C@@H](N)Cc1cccnc1`, the MIC50 in test [5] worked out at 5.85 µM (≈ 4.87 µg/mL).
Consider `Cc1cn([C@H]2C[C@H](O)[C@@H](C[C@H](NCCCNC(=O)[C@H](CC(C)C)NC(=O)[C@H](CCCCN)NC(=O)N[C@H](C(=O)O)C(C)C)C(=O)O)O2)c(=O)[nH]c1=O`, for which, in test [2], the 50% inhibitory concentration (IC50) is greater than 100 µM. In addition, the inhibition in the test on Staphylococcus aureus was 38%.
As for `CC(C)C[C@H](NC(=O)N[C@@H](Cc1c[nH]c2ccccc12)C(=O)O)C(=O)N[C@H](C(=O)NC[C@H]1C[C@@H](O)[C@H](n2ccc(=O)[nH]c2=O)O1)[C@H](C)N(C)C(=O)[C@@H](N)C1CCCCC1`, the MIC50 in test [5] was found to be 1.1 µM (≈ 0.906 µg/mL).
In the case of `CC(C)C[C@H](NC(=O)N[C@@H](Cc1c[nH]c2ccccc12)C(=O)O)C(=O)N[C@H](C(=O)NC[C@H]1C[C@@H](O)[C@H](n2ccc(=O)[nH]c2=O)O1)[C@H](C)N(C)C(=O)[C@@H](N)[C@@H](C)O`, the MIC50 in test [5] is 1.35 µM (≈ 1.06 µg/mL).
Still for that read-out and setting: as for `CC(C)C[C@H](NC(=O)N[C@@H](Cc1c[nH]c2ccccc12)C(=O)O)C(=O)N[C@H](C(=O)NC[C@H]1C[C@@H](O)[C@H](n2ccc(=O)[nH]c2=O)O1)[C@H](C)N(C)C(=O)[C@@H](N)CC(=O)O`, the figure is 9.8 µM (≈ 7.84 µg/mL).
`CC(C)C[C@H](NC(=O)[C@H](CCCCN)NC(=O)N[C@H](C(=O)O)C(C)C)C(=O)NCCCN[C@@H](C[C@H]1O[C@@H](n2ccc(=O)[nH]c2=O)C[C@@H]1O)C(=O)O` came in with an IC50 in test [2] of 4.6 µM.
As for `CC(C)C[C@H](NC(=O)N[C@@H](Cc1c[nH]c2ccccc12)C(=O)O)C(=O)N[C@H](C(=O)NC[C@H]1C[C@@H](O)[C@H](n2ccc(=O)[nH]c2=O)O1)[C@H](C)N(C)C(=O)[C@@H](N)Cc1cccc(O)c1`, in test [5], the MIC50 amounted to 0.3 µM (≈ 0.254 µg/mL).
With `CC(C)C[C@H](NC(=O)[C@H](CCCCN)NC(=O)N[C@H](C(=O)O)C(C)C)C(=O)NCCCN[C@@H](C[C@H]1O[C@@H](n2ccc(=O)[nH]c2=O)[C@H](O)[C@@H]1O)C(=O)O`, in test [2], the IC50 is 2.5 µM.

Values taken from ChEMBL document CHEMBL4725382, “Uridine natural products: Challenging targets and inspiration for novel small molecule inhibitors” (Bioorg Med Chem, 2020).
